Measured values as given in patent publication US20140206992A1, “METHOD FOR DIAGNOSING CANCER” (THE UNIVERSITY OF TOKYO, priority 2010, published 2014).

What was measured:
[1] = system: SHIN3 cells derived from human ovarian cancer (peritoneal dissemination model); assay: Fluorescence imaging using cancer model mouse (peritoneal dissemination model); assay type: in vivo, athymic mice; conditions: 300 μL of 50 μM in PBS i.p., 30 minutes after administration, from outside the body and after abdominal section
From the text: Disseminated metastasis of ovarian cancer to the peritoneum is known as a generally-occurring lethal complication of ovarian cancer. Such metastasis to the peritoneum begins to occur at a relatively early stage of ovarian cancer, the tumor invades the […], and falls into the abdominal cavity, and as a result, the tumor metastasizes to the other organs in the abdominal cavity as seeds are scattered (dissemination metastasis). In order to experimentally reproduce this phenomenon, SHIN3 cells of ovarian cancer origin were intraperitoneally administered to athymic mice to prepare a peritoneal dissemination model (Neoplasia, 8, pp. 607-612, 2006). […]
A solution of Compound (2) (γGlu-RhoHM) in PBS (50 μM) in a volume of 300 μL was intraperitoneally (i.p.) administered to the peritoneal dissemination model mice. Fluorescence imaging was performed by irradiating an excitation light of 450 to 480 nm from the outside of the mouse body under anesthesia 30 minutes after the i.p. administration, and observing fluorescence of 516 to 556 nm. Further, after the mice were sacrificed with CO2 gas, and exsanguination was performed, abdominal section was performed with surgery appliances for small animals to expose the abdominal cavity, an excitation light of 445 to 490 nm was irradiated, and fluorescence was measured at every 10 nm from 520 to 800 nm to obtain fluorescence spectrum images. […]

[2] = system: γ-glutamyltranspeptidase (GGT, equine kidney); assay: Enzymatic reaction of the fluorescent probe with γ-glutamyltranspeptidase (GGT); assay type: biochemical; conditions: 5 μM compound, excitation 501 nm
Description: Compound (2) (γGlu-RhoHM) formed by binding the acyl residue derived from glutamic acid to one amino group of Compound (1) (RhoHM) was dissolved in a neutral phosphate buffer, and γ-glutamyltranspeptidase (GGT, equine kidney, SIGMA G9270-100UN) was reacted with the solution. Specifically, 3 μL of a […] of the compound in dimethyl sulfoxide (DMSO) was dissolved at a final concentration of 5 μM in 3 mL of a 0.1 M sodium phosphate buffer (pH 7.4), and GGT (1.1 U) was added for the enzymatic reaction at 37° C. The excitation wavelength was 501 nm.
The DMSO solution of the compound (5 mM) in a volume of 3 μL was dissolved in 3 mL of a 0.1 M sodium phosphate buffer (pH 7.4) at a final concentration of 5 μM, and the enzymatic reaction was performed at 37° C. The values of fluorescence intensity observed with each amount of the enzyme 9 minutes after the addition of the enzyme were plotted. The excitation wavelength was 501 nm, and the fluorescence emission wavelength was 524 nm.

LAP = assay: Enzyme specificity: reaction with LAP; assay type: biochemical
Description: Enzyme specificity of Compound (2) was examined. The DMSO solution (5 mM) in a volume of 3 μL was dissolved in 3 mL of a 0.1 M sodium phosphate buffer (pH 7.4) at a final concentration of 5 μM, and LAP (0.4 U) was added to the solution to perform the enzymatic reaction at 37° C.

[3] = system: SHIN3 cells derived from human ovarian cancer (peritoneal dissemination model); assay: Live imaging of cancer model mouse using fluorescent endoscope; assay type: in vivo; conditions: 300 μL of 50 μM in PBS sprayed from endoscope tip
From the text: Disseminated metastasis of ovarian cancer to the peritoneum is known as a generally-occurring lethal complication of ovarian cancer. Such metastasis to the peritoneum begins to occur at a relatively early stage of ovarian cancer, the tumor invades the […], and falls into the abdominal cavity, and as a result, the tumor metastasizes to the other organs in the abdominal cavity as seeds are scattered (dissemination metastasis). In order to experimentally reproduce this phenomenon, SHIN3 cells of ovarian cancer origin were intraperitoneally administered to athymic mice to prepare a peritoneal dissemination model (Neoplasia, 8, pp. 607-612, 2006).
The SHIN3 cells derived from human ovarian cancer were cultured at 37° C. in the RPMI 1640 medium containing 10% FBS, 100 U/mL of penicillin, and 100 μg/mL of streptomycin under 5% CO2. After the cells reached subconfluent, the cells were washed with PBS (phosphate buffered saline), and removed with Trypsin-EDTA so that individual cells were separated. The treated cells were centrifuged (100×g, 4° C., 3 minutes), and after the supernatant was discarded, ice-cooled PBS was added to the cells to suspend them at a cell density of 1×10^6 cells/300 μL. […]
A small hole was formed in the abdominal part of the peritoneal dissemination model mouse under isoflurane anesthesia, a fluorescence endoscope was inserted into the abdominal cavity through the hole, and 300 μL of a solution of Compound (2) (γGlu-RhoHM) in PBS (50 μM) was sprayed in a misty state from the tip of the endoscope. Then, an excitation light of 450 to 480 nm was irradiated, and fluorescence of 516 to 556 nm was observed over time to obtain fluorescence endoscope movies and images. In each of the results obtained immediately after the spray (0 sec), and 30 seconds, 60 seconds, 90 seconds, and 10 minutes after the spray, a white light image is shown on the left side, and a fluorescence image is shown on the right side. The “white light image” is an image obtained in a usual endoscope mode, not a fluorescence mode for comparison.

Q: For `Nc1ccc2c(c1)Oc1cc(NC(=O)CC[C@H](N)C(=O)O)ccc1C21OCc2ccccc21` (some centres unmarked) [Compound (2), γGlu-RhoHM], which “fluorescence of cancer sites in imaging” value [1] is on record?
A: Its value is “strong green fluorescence was observed in a cancer site-specific manner”.

Q: What about the “change of absorption and fluorescence intensity after reaction with GGT” value ([2]; 0.1 M sodium phosphate buffer pH 7.4, GGT 1.1 U, 37° C.) of the same molecule?
A: The value was “remarkable elevations of absorption and fluorescence intensity were immediately observed”.

Q: What about the “fluorescence intensity versus added GGT amount” value ([2]; pH 7.4, 37° C., 9 minutes after addition of enzyme, emission 524 nm) of the same molecule?
A: Its value is “linear increase of fluorescence intensity in an added GGT amount-dependent manner”.

Q: And the “increase of fluorescence intensity after reaction with LAP” value (LAP; 5 μM compound, 0.1 M sodium phosphate buffer pH 7.4, LAP 0.4 U, 37° C.)?
A: The value was “increase of fluorescence intensity was not observed”.

Q: And the “enzyme specificity (GGT versus LAP)” value (LAP; conclusion from the reactions with LAP (Example 3) and GGT (Example 2))?
A: Its value is “specifically detected GGT”.

Q: And the “time to specific fluorescence emission of the cancerous part” value [3]?
A: Its value is “specifically emit fluorescence within several minutes”.

Q: And the “cancerous tissue fluorescence images 10 minutes after spray” value ([3]; 10 minutes after the spray)?
A: Its value is “cancerous tissues were clearly imaged”.

Q: And the “cancerous tissue fluorescence images from immediately after spray to 90 seconds” value ([3]; excitation 450 to 480 nm, fluorescence 516 to 556 nm)?
A: Its value is “cancerous tissue images became clearer”.
